Measurements from PMC6110922, “Inhibition of Chloride Intracellular Channel 1 (CLIC1) as Biguanide Class-Effect to Impair Human Glioblastoma Stem Cell Viability” (Frontiers in Pharmacology, 2018).
Structures can show the parent of a compound that is named as a salt.

Target: T1, chloride intracellular channel 1 (CLIC1) (Homo sapiens, UniProt O00299)
T1 construct: endogenous channel in GBM2 and GBM4 glioblastoma stem cells
Test: perforated-patch whole-cell patch clamp, CLIC1 (IAA94-sensitive) current
Type: cell-based

| SMILES | perforated-patch whole-cell patch clamp, CLIC1 (IAA94-sensitive) current |
| --- | --- |
| CC1(C)N=C(N)N=C(N)N1c1ccc(Cl)cc1 [cycloguanil] | 0.5 mM |
| CN(C)C(=N)NC(=N)N [metformin, 1,1-dimethylbiguanide hydrochloride] | 10 mM |
